Laboratory results as given in US7879853B2, “4,6-disubstituted pyrimidines and their use as protein kinase inhibitors” (Bayer Schering Pharma AG, priority 2004, dated 2011).

Columns and labels:
[1] = tested on: phosphorylated Akt1 (Ser473) in MCF7 cells; assay: Cellular PI3K/Akt pathway assay (pAkt-ELISA); assay type: cell-based; conditions: Homo sapiens, β-Heregulin (20 ng/ml) stimulation, 48 h, read-out: Akt pathway inhibition (pAkt-ELISA): IC50
Description: In order to study the cellular activity of the compounds according to the invention, an ELISA-based assay has been established. The assay is based on a Sandwich ELISA kit (PathScan™ Phospho-Akt1 (Ser473); Cell Signaling, USA; #7160).
The assay detects endogenous levels of phosphorylated Akt1 protein. A phospho-Akt (Ser473) antibody (Cell Signaling, USA; #9271) has been coated onto the microwells. After incubation with cell lysates, the phosphorylated Akt protein is captured by the coated antibody. Following extensive washing, Akt1 monoclonal antibody (Cell Signaling, USA; #2967) is added to detect the captured phospho-Akt1 protein. HRP-linked anti-mouse antibody (Cell Signaling, USA; #7076) is then used to recognize the bound detection antibody. […] The magnitude of optical density for this developed color is proportional to the quantity of phosphorylated Akt1 protein. […]
Cells are harvested under nondenaturating conditions and lysed with brief sonification in 1× cell lyses buffer (20 mM Tris (pH7.5), 150 mM NaCl, 1 mM ethylene diaminetetraacetate (EDTA), 1 mM ethylene glycolbis-(2-aminoethyl)-N,N,N′,N′-tetraacetic acid (EGTA), 1% Triton X-100, 2.5 mM sodium pyrophosphate, 1 mM β-glycerolphosphate, 1 mM Na3VO4, 1 μg/ml leupeptin). […] The absorbance is read at 450 nm (Wallac Victor2; Perkin Elmer, USA) within 30 minutes after adding STOP solution. […]

[2] = target: T1, Akt1 (full-length Akt1, active) (Homo sapiens, UniProt P31749); assay: Biochemical Akt1 (active) assay (full-length Akt1), flashplate, Crosstide; conditions: Crosstide substrate, 100 nM ATP, 60 minutes at 30° C.; read-out: Akt1 inhibition (full-length Akt1, active): IC50
T1 construct: recombinant full-length human Akt1, containing N-terminal His6 tag; His6 (N); GST (alternative statement of the assay paragraph) (N); purchased Upstate, UK #14-276; host or cells: baculovirus infected Sf21 insect cells
T1 sequence (P31749 whole entry): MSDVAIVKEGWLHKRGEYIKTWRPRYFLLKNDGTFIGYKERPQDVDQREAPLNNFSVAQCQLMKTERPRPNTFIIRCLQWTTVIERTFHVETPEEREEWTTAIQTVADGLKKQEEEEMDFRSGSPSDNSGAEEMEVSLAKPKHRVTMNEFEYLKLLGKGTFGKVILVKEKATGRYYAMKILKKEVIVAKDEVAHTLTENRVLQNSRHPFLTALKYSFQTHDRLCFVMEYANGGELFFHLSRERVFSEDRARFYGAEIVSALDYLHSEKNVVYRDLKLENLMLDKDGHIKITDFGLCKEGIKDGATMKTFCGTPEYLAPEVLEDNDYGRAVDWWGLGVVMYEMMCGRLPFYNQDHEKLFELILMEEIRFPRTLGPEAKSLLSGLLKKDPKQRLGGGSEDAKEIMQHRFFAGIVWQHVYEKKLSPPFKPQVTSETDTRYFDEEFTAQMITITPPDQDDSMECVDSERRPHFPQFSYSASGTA
Text: For the biochemical Akt1 assay recombinant full-length human Akt1, containing N-terminal His6 tag was cloned and expressed in baculovirus infected Sf21 insect cells. Akt1 is activated with GST-MAPKAP-K2 and PDK1, and repurified on Ni2+/NTA-agrose and glutathioneagarose (Upstate, UK; #14-276).
In order to study the inhibition of Akt1 (full-length version) according to the invention, a flashplate-based assay has been developed.
The full-length Akt1 assay is a biochemical assay using Akt1 N-terminally fused to GST and co-expressed with PDK1 in insect cells. The Akt1 assay is run in 96 well plates by incubating 500 ng/well GST-Akt1, 1 μM Crosstide (N-terminally biotinylated synthetic peptide (KGSGSGRPRTSSFAEG) Upstate, #12-385) as substrate, 10 μl of test compound (test compounds were dissolved as 10 mM solutions in dimethylsulfoxide (DMSO) and subsequently diluted) and 100 nM ATP (including ^33P-ATP) in 100 μl of reaction buffer (50 mM HEPES, pH7.5; 3 mM MgCl2; 3 mM MnCl2; 3 μM Na-Orthovanadat; 1 mM DTT; 1 μg/ml PEG8000) for 60 minutes at 30° C. in 96 well microtiter plates. The reactions are terminated by adding 100 μl stopping buffer (5M NaCl, 35 mM EDTA pH 8,0) for 5 minutes. 190 μl of the reaction mixture are transferred into streptavidin-coated Flashplates (Perkin Elmer, #SMP-103) and incubated for further 30 minutes at room temperature. The plates are washed 3 times by using washing buffer (0.9% NaCl). Relying on the incorporation of ^33P into the peptide substrate crosstide, the detection is based on the specific binding of the biotinylated peptide to the streptavidin-coated surface of scintillator-coated flash plates (NEN, USA; #SMP-103). This phosphorylation is measured by counting the plate for 60 sec. using a plate reader (Wallac Microbeta; Perkin Elmer, USA). The analysis of the data is performed using a biostatistical program (GraphPad Prism, USA).

- IC50 [1]: 6 µM
- IC50 [2]: ≤ 1.75 µM
SMILES: CC(C)(N)c1ccc(C(=O)Nc2ccc(Nc3cc(-c4cccc5c4oc4ccccc45)ncn3)cc2)cc1 [Compound 69, 4-(1-Amino-1-methyl-ethyl)-N-[4-(6-dibenzofuran-4-yl-pyrimidin-4-ylamino)-phenyl]-benzamide trifluoracetate]
